How the values were obtained:
[1] = organism: Rattus norvegicus; assay: Functional refractory period (FRP) determined in rat atria
[2] = organism: Rattus norvegicus; assay: Contractile force determined in rat atria; assay type: functional
[3] = Rattus norvegicus, read-out: EC25

**Q.** For `Nc1ncnc2c1ncn2C[C@@]1(O)CC[C@H]2CN(C(c3ccccc3)c3ccccc3)CCN2C1`, which EC25 [1, 3] is on record?
**A.** 15 µM

**Q.** What about the EC25 [2, 3] of the same molecule?
**A.** 15 µM

**Q.** Which EC25 [1, 3] does the source give for `Nc1ncnc2c1ncn2C[C@]1(O)CC[C@H]2CN(C(c3ccccc3)c3ccccc3)CCN2C1` here?
**A.** 1.8 µM

**Q.** What about the EC25 [2, 3] of the same molecule?
**A.** 6.5 µM

**Q.** `Nc1ncnc2c1ncn2CC(O)CN1CCN(C(c2ccccc2)c2ccccc2)CC1` (configuration not stated) was tested. Which EC25 [1, 3] did it give?
**A.** 0.2 µM

**Q.** What about the EC25 [2, 3] of the same molecule?
**A.** 0.5 µM

**Q.** With `Nc1ncnc2c1ncn2C1CCCC(N2CCN(C(c3ccccc3)c3ccccc3)CC2)C1O` (cis isomer) as the molecule, how does the EC25 [1] read?
**A.** 17 µM

**Q.** What about the EC25 [2] of the same molecule?
**A.** 20 µM

**Q.** How did the EC25 [1] turn out when `Nc1ncnc2c1ncn2C1CCCC(N2CCN(C(c3ccccc3)c3ccccc3)CC2)C1O` (stereo in doubt) was run?
**A.** 0.9 µM

**Q.** What about the EC25 [2] of the same molecule?
**A.** 1.5 µM

**Q.** `Nc1ncnc2c1ncn2C1CCCC(N2CCN(C(c3ccccc3)c3ccccc3)CC2)C1O` (trans isomer) was tested. Which EC25 [1] did it give?
**A.** 9 µM

**Q.** What about the EC25 [2] of the same molecule?
**A.** 1.2 µM
